# Laboratory results taken from patent US20210171604A1, “PEPTIDES FOR THE TREATMENT OF TYPE 2 DIABETES” (YISSUM RESEARCH DEVELOPMENT COMPANY OF THE HEBREW …, priority 2017, published 2021).
# Marks after values point to notes of the source that are not given here. [ ]: non-standard residue; d: D form. The star is where a group is joined. Stearoyl = CCCCCCCCCCCCCCCCCC(=O)*; Myristoyl = CCCCCCCCCCCCCC(=O)*; Nle = CCCC[C@H](N)C(=O)O; Nva = CCC[C@H](N)C(=O)O
# Experiments:
# [1] = tested on: male C57BL mice; experiment: Inhibition of starvation-induced insulin resistance (blood glucose after 8 h starvation); format: in vivo; conditions: for inhibition of insulin-resistance developed in the course of starvation: i.p. ~35 mg/kg, 8 h starvation, compared to vehicle; for % blood glucose decrease following 8 h starvation / Mean blood glucose after 8 h starvation (% of time 0): i.p. 1 mg/mouse (~35 mg/kg); for % blood glucose decrease following 8 h starvation: compared with time 0; for Mean blood glucose after 8 h starvation (% of time 0): level after 8 h starvation compared to t0 (=100%), vehicle 90.3; for inhibition of starvation-induced insulin-resistance (words, FIG. 1): Example 5, 20 mg/kg i.p., relative change in blood glucose compared to time 0 (=100%)
# Method: Protocol: Blood glucose was measured in the morning (time 0). The mice were then injected intraperitoneally with a peptide (1 mg/mouse=˜35 mg/kg) or with a vehicle and placed in a cage with water but no food. After 8 hrs starvation, blood glucose was measured again and the mice were supplied with food. […]
# The ability of the peptides ACD-403.3, ACD-047.7 and ACD-040.2 described in Example 1 above, to inhibit insulin-resistance induced by starvation was tested in mice (male C57BL mice ˜9-10 wks old).
# Peptides' solutions for injection were prepared as follows: 5 mg peptide were dissolved in 1 ml of a solution composed of 5% hydroxypropyl-beta-cyclodextrin (HPβCD)+2% Propylene glycol (PG)+2% Tween-80 in DDW (Wt/Vol). If needed, the solution was warmed up to 80° C. to facilitate peptide solubilization. 0.2 ml of this solution, or from a vehicle (no peptide), were injected i.p. into the mice.
# The results, summarized in Table 4 below, are expressed as % change in blood glucose level after 8 h starvation, compared to t0 (=100%), as well as % decrease in blood glucose after 8 hrs starvation, compared with blood glucose at time 0. A higher decrease in glucose levels in the blood indicates better intake of glucose by cells, which reflects better inhibition of the starvation-induced insulin resistance. […]
# [2] = tested on: obese diabetic mice (db/db); experiment: Blood glucose response of obese diabetic (db/db) mice to peptide treatment; format: in vivo; conditions: for Blood glucose: mean, n=3; for % change from time point (−4) in blood glucose: compared to first baseline (241 mg/dL)
# Method: ACD-004 was tested for its effect on hyperglycemia in obese diabetic mice (db/db).
# Protocol: Mice (n=3) were kept on normal, unlimited diet. Prior to peptide treatment, baseline measurements of blood glucose and body weight were taken every ˜3 weeks through a period of 2.5 months (see time points (−1)-(−4) in Table 3 below). Injections of the peptide (intraperitoneally, ˜35 mg/kg) started on time point 0 and continued on time points 1 and 2, twice a day. Blood glucose and body weight were measured at the indicated days.
# The results, summarized in Table 3, are expressed as mean % change in blood glucose compared to the first baseline measurement (time point (−4)).
# Mice (n=16) were kept on normal, unlimited diet. Injections of the peptide (i.p., 20 mg/kg, n=9) or vehicle (i.p., n=7) started at 3-4 m of age (time point ‘0’) and continued for 3 days, once a day. In a similar experiment the peptide […] were injected to mice with severe diabetes for 7 days.
# [3] = HPβCD/PG/Tween-80 vehicle, vehicle 9.7%
# [4] = DMSO/Brij-97 vehicle, vehicle 14%
substance,measurement,setting,value
"Myr-G-R-N-NorVal-Q-K-G-Q-V-T-R-NH2 (Myristoyl-GRN[Nva]QKGQVTR-NH2; SMILES CCCCCCCCCCCCCC(=O)NCC(=O)N[C@@H](CCCNC(=N)N)C(=O)N[C@@H](CC(N)=O)C(=O)N[C@@H](CCC)C(=O)N[C@@H](CCC(N)=O)C(=O)N[C@@H](CCCCN)C(=O)NCC(=O)N[C@@H](CCC(N)=O)C(=O)N[C@H](C(=O)N[C@H](C(=O)N[C@@H](CCCNC(=N)N)C(N)=O)[C@@H](C)O)C(C)C) [ACD-040.2, myristoylated, amidated peptide derived from h-HO-1]",inhibition of insulin-resistance developed in the course of starvation,[1]; Example 4,effectively inhibited insulin-resistance
same,% blood glucose decrease following 8 h starvation,[1]; [3],36.6%
same,Mean blood glucose after 8 h starvation (% of time 0),[1]; HPβCD/PG/Tween-80 vehicle,63.4** %
"Stear-G-R-N-H-Q-K-G-Q-V-T-R-NH2 (Stearoyl-GRNHQKGQVTR-NH2; SMILES CCCCCCCCCCCCCCCCCC(=O)NCC(=O)N[C@@H](CCCNC(=N)N)C(=O)N[C@@H](CC(N)=O)C(=O)N[C@@H](Cc1c[nH]cn1)C(=O)N[C@@H](CCC(N)=O)C(=O)N[C@@H](CCCCN)C(=O)NCC(=O)N[C@@H](CCC(N)=O)C(=O)N[C@H](C(=O)N[C@H](C(=O)N[C@@H](CCCNC(=N)N)C(N)=O)[C@@H](C)O)C(C)C) [ACD-403.3, stearoylated, amidated peptide derived from h-HO-1]",inhibition of insulin-resistance developed in the course of starvation,[1]; Example 4,effectively inhibited insulin-resistance
same,% blood glucose decrease following 8 h starvation,[1]; [3],36.7%
same,Mean blood glucose after 8 h starvation (% of time 0),[1]; HPβCD/PG/Tween-80 vehicle,63.3** %
"Myr-G-R-N-L-Q-K-G-Q-V-T-R-NH2 (Myristoyl-GRNLQKGQVTR-NH2; SMILES CCCCCCCCCCCCCC(=O)NCC(=O)N[C@@H](CCCNC(=N)N)C(=O)N[C@@H](CC(N)=O)C(=O)N[C@@H](CC(C)C)C(=O)N[C@@H](CCC(N)=O)C(=O)N[C@@H](CCCCN)C(=O)NCC(=O)N[C@@H](CCC(N)=O)C(=O)N[C@H](C(=O)N[C@H](C(=O)N[C@@H](CCCNC(=N)N)C(N)=O)[C@@H](C)O)C(C)C) [ACD-047.7, myristoylated, amidated peptide derived from h-HO-1]",inhibition of insulin-resistance developed in the course of starvation,[1]; Example 4,effectively inhibited insulin-resistance
same,"inhibition of starvation-induced insulin-resistance (words, FIG. 1)",[1],inhibited significantly
same,% blood glucose decrease following 8 h starvation,[1]; [3],39.2%
same,Mean blood glucose after 8 h starvation (% of time 0),[1]; HPβCD/PG/Tween-80 vehicle,60.8** %
"Myr-G-F-T-K-G-Q-V-T-NH2 (Myristoyl-GFTKGQVT-NH2; SMILES CCCCCCCCCCCCCC(=O)NCC(=O)N[C@@H](Cc1ccccc1)C(=O)N[C@H](C(=O)N[C@@H](CCCCN)C(=O)NCC(=O)N[C@@H](CCC(N)=O)C(=O)N[C@H](C(=O)N[C@H](C(N)=O)[C@@H](C)O)C(C)C)[C@@H](C)O) [ACD-005, myristoylated, amidated peptide derived from h-HIF1α]",inhibition of insulin-resistance developed in the course of starvation,[1]; Example 2,effectively inhibited insulin-resistance
same,% blood glucose decrease following 8 h starvation,[1]; [4],49%
Myr-G-R-N-I-Q-K-G-Q-V-T-R-NH2 (Myristoyl-GRNIQKGQVTR-NH2; SMILES CCCCCCCCCCCCCC(=O)NCC(=O)N[C@@H](CCCNC(=N)N)C(=O)N[C@@H](CC(N)=O)C(=O)N[C@H](C(=O)N[C@@H](CCC(N)=O)C(=O)N[C@@H](CCCCN)C(=O)NCC(=O)N[C@@H](CCC(N)=O)C(=O)N[C@H](C(=O)N[C@H](C(=O)N[C@@H](CCCNC(=N)N)C(N)=O)[C@@H](C)O)C(C)C)[C@@H](C)CC) [ACD-047.8],"inhibition of starvation-induced insulin-resistance (words, FIG. 1)",[1],inactive
"Myr-G-R-N-F-Q-K-G-Q-V-T-R-NH2 (Myristoyl-GRNFQKGQVTR-NH2; SMILES CCCCCCCCCCCCCC(=O)NCC(=O)N[C@@H](CCCNC(=N)N)C(=O)N[C@@H](CC(N)=O)C(=O)N[C@@H](Cc1ccccc1)C(=O)N[C@@H](CCC(N)=O)C(=O)N[C@@H](CCCCN)C(=O)NCC(=O)N[C@@H](CCC(N)=O)C(=O)N[C@H](C(=O)N[C@H](C(=O)N[C@@H](CCCNC(=N)N)C(N)=O)[C@@H](C)O)C(C)C) [ACD-004, myristoylated, C-terminally amidated peptide derived from h-HO-1]",inhibition of insulin-resistance developed in the course of starvation,[1]; Example 2,effectively inhibited insulin-resistance
same,% blood glucose decrease following 8 h starvation,[1]; [4],47%
same,Blood glucose,"[2]; ACD-004 i.p. ~35 mg/kg twice a day at time points 0-2, time point 3, age 18.3 wks",105 mg/dL
same,Blood glucose,"[2]; ACD-004 i.p. ~35 mg/kg twice a day from time point 0, time point 1, age 17.9 wks",177 mg/dL
same,Blood glucose,"[2]; ACD-004 i.p. ~35 mg/kg twice a day from time point 0, time point 2, age 18.1 wks",139 mg/dL
same,effect on blood glucose levels in diabetic mice,"[2]; Example 3, i.p. ~35 mg/kg twice a day",effectively reduced blood glucose levels
same,% change from time point (−4) in blood glucose,[2]; time point 1,−27%
same,% change from time point (−4) in blood glucose,[2]; time point 2,−42%
same,% change from time point (−4) in blood glucose,[2]; time point 3,−56%
Myr-G-R-N-Nle-Q-K-G-Q-V-T-R-NH2 (Myristoyl-GRN[Nle]QKGQVTR-NH2; SMILES CCCCCCCCCCCCCC(=O)NCC(=O)N[C@@H](CCCNC(=N)N)C(=O)N[C@@H](CC(N)=O)C(=O)N[C@@H](CCCC)C(=O)N[C@@H](CCC(N)=O)C(=O)N[C@@H](CCCCN)C(=O)NCC(=O)N[C@@H](CCC(N)=O)C(=O)N[C@H](C(=O)N[C@H](C(=O)N[C@@H](CCCNC(=N)N)C(N)=O)[C@@H](C)O)C(C)C) [ACD-047.9],"inhibition of starvation-induced insulin-resistance (words, FIG. 1)",[1],inactive
"Stear-G-R-N-F-Q-K-G-Q-V-T-R-NH2 (Stearoyl-GRNFQKGQVTR-NH2; SMILES CCCCCCCCCCCCCCCCCC(=O)NCC(=O)N[C@@H](CCCNC(=N)N)C(=O)N[C@@H](CC(N)=O)C(=O)N[C@@H](Cc1ccccc1)C(=O)N[C@@H](CCC(N)=O)C(=O)N[C@@H](CCCCN)C(=O)NCC(=O)N[C@@H](CCC(N)=O)C(=O)N[C@H](C(=O)N[C@H](C(=O)N[C@@H](CCCNC(=N)N)C(N)=O)[C@@H](C)O)C(C)C) [ACD-400.3, identical to ACD-004 except N-terminal acyl group is stearoyl instead of myristoyl]","blood glucose following 7-day treatment (words, FIG. 3)","[2]; (db/db) mice with severe diabetes, injected for 7 days, vs vehicle",outstanding decrease in blood glucose
same,"blood glucose following 3-day treatment (words, FIG. 2)","[2]; i.p. 20 mg/kg once a day for 3 days, n=9 vs vehicle n=7",outstanding decrease in blood glucose
